According to patent US12577213B2 (NINGBO COMBIREG PHARMACEUTICAL TECHNOLOGY CO., LTD., priority 2020, dated 2026):

Experiments:
[1] = test system: xenograft of human colon cancer HCT-116 in nude mice; experiment: Xenograft tumor growth inhibition, HCT-116; format: in vivo, BALB/c nude mice; conditions: for Relative tumor proliferation rate (%) / Tumor weight inhibition rate (%): HCT116 xenograft; for efficacy evaluation on growth of HCT-116 xenograft (in words): criteria: T/C (%)≤40 and P<0.05 is effective
Procedure: (§1) The embodiment compound was prepared as a 40× stock solution of DMSO and diluted to the administered concentration with saline containing 2.5% Tween 80 (Tween 80) used before;
(§2) Male BALB/c nude mice, 4-5 weeks old, were purchased from Beijing Vital River Laboratory Animal Technology Co., Ltd, with a license No. SCXK(Beijing)2012-0001, and the mice were bred in the SPF-class laboratory animal center of Tsinghua University. The tumor lines used in the experiment were: xenograft of human lung cancer NCI-H522 in nude mice, xenograft of human colon cancer HCT-116 in nude mice.
(§3) Tumor-bearing animals with good tumor growth and overall condition were selected and sacrificed by cervical dislocation. The tumors were removed under aseptic condition, cut into tumors with 2-3 mm diameter by a scalpel, and inoculated subcutaneously behind the armpit of nude mice by trocar. The tumors grew naturally and were randomly grouped after the tumor volume grew to 105 mm^3, and the administration date of grouping was set as D0 (Day 0).
(§4) Grouping experiment, with 7-9 animals in each group, starting from now on, administration was started according to the weight of the animals. During the administration process, the long, short diameter of the tumors and weight of animals were measured every 2-3 days, and the tumor size was calculated by the formula: (½)×long diameter×(short diameter)^2, and the experiment was ended on the 27th day (D27) after grouping. At the end of the experiment, the animals were sacrificed by cervical dislocation, the tumors were peeled off and weighed, and the inhibitory rates of the drugs on tumor growth were calculated. Tumor volume (TV) and relative tumor volume (RTV) were calculated. T test was used to compare the statistical significance of the differences in tumor weight, tumor volume and RTV of the animals in each group.
(§5) Calculation formulas are as follows: average tumor weight in the vehicle control group−average tumor weight in the treatment group Tumor inhibition rate (%)=(average tumor weight in the vehicle control group−average tumor weight in the treatment group)[…](average tumor weight in the vehicle control)×100. Tumor volume (TV)=(length×width^2)/2. Relative tumor volume (RTV)=Vt/Vo (wherein, Vo is the TV measured at the time of grouping and administration, and Vt is the TV at each subsequent measurement).
(§6) [formula] • Efficacy evaluation criteria: T/C (%)>40 is invalid; • T/C (%)≤40, and P<0.05 is effective after statistical processing. 4.

[2] = test system: breast cancer cell line SUM159 sphere; experiment: Breast cancer stem cell sphere formation; format: cell-based, human; conditions: 50 nM; for formation of the sphere after cell passage: 5 days of drug treatment, then passage
Procedure: The inhibitory effects of embodiment compounds 5, 7, 11, 13, 14, 20 and 21 on the formation of breast cancer cell line SUM159 sphere are described as follows.
The breast cancer cell line SUM159 sphere was cultured with serum-free medium in an ultra-low adsorption plate, the basal medium was DMEM/F12 (without phenol red), and B27 (without vitamin A) (1×), EGF (20 ng/ml), bFGF (20 ng/ml) and insulin (insulin, 5 ug/ml) were added.
An equal number (4000) of SUM159 cells per well were inoculated into an ultra-low adsorption 24 plate, and the sphere was photographed after 5 days of culture, replaced with fresh medium, and treated with drugs at certain concentrations, respectively. Compounds 5, 7, 11, 13, 14, 20 and 21 were evaluated in this experiment at 50 nM, respectively. The effect of the drug on the sphere phenotype could be observed after about 3 days of drug treatment. The sphere was photographed again after 5 days of drug treatment, and then the sphere was passaged. The sphere was photographed again after 7 days of passage.
The differences of the photographs taken in three different stages were counted and compared, and the killing effect of the tested compounds on SUM159 sphere was evaluated through the differences of sphere formation after passage, thus reflecting the inhibitory effects of different compounds on breast cancer stem cells.

[3] = test system: xenograft of human lung cancer NCI-H522 in nude mice; experiment: Xenograft tumor growth inhibition, NCI-H522; format: in vivo, BALB/c nude mice; conditions: iv., q4d × 6
Procedure: as §1, §2, §3, §4, §5, §6

[4] = 20 mg/kg, intravenous injection every other day × 9
[5] = 16 mg/kg, intravenous injection every other day × 9
[6] = 20 mg/kg, intravenous injection every other day × 3

SMILES | Relative tumor proliferation rate (%) [1, 4] [%] | Tumor weight inhibition rate (%) [1, 4] [%] | efficacy evaluation on growth of HCT-116 xenograft (in words) [1] | killing effect on SUM159 sphere [2] | formation of the sphere after cell passage [2] | Relative tumor proliferation rate (%) [1, 5] [%] | Tumor weight inhibition rate (%) [1, 5] [%] | Relative tumor proliferation rate (%) [1, 6] [%] | Tumor weight inhibition rate (%) [1, 6] [%] | T/C (%) ([3]; 12.5 mg/kg) | Tumor weight inhibition (%) ([3]; 12.5 mg/kg) | T/C (%) ([3]; 25 mg/kg) | Tumor weight inhibition (%) ([3]; 25 mg/kg) | T/C (%) ([3]; 50 mg/kg) | Tumor weight inhibition (%) ([3]; 50 mg/kg)
[2H]C([2H])([2H])Oc1cc(C(=O)Nc2cc3c(cc2Oc2cc(C)cc(C)c2)C(=O)N[C@@H](CC(=O)N(C)C)C(=O)N3)c(Br)c(OC([2H])([2H])[2H])c1OC([2H])([2H])[2H] [Compound 20, (S)-2-bromo-N-[3-[2-(dimethylamino)-2-oxoethyl]-7-(3,5-dimethylphenoxy)-2,5-dioxo-2,3,4,5-tetrahydro-1H-benzo[e][1,4]diazepin-8-yl]-3,4,5-tris(trideuteromethoxy)benzamide] | 30 | 75.4 | inhibit the growth | strong killing effect | significantly reduced | – | – | – | – | – | – | – | – | – | –
[2H]C([2H])([2H])Oc1cc(C(=O)Nc2cc3c(cc2Oc2cc(C)cc(C)c2)C(=O)N(C)[C@@H](CC(=O)N(C)C)C(=O)N3)c(Br)c(OC([2H])([2H])[2H])c1OC([2H])([2H])[2H] [Compound 16, (S)-2-bromo-N-[3-[2-(dimethylamino)-2-oxoethyl]-7-(3,5-dimethylphenoxy)-4-methyl-2,5-dioxo-2,3,4,5-tetrahydro-1H-benzo[e][1,4]diazepin-8-yl]-3,4,5-tris(trideuteromethoxy)benzamide] | – | – | inhibit the growth | – | – | 38 | 63.4 | – | – | – | – | – | – | – | –
[2H]C([2H])([2H])Oc1cc(C(=O)Nc2cc3c(cc2Oc2cc(C)cc(C)c2)C(=O)N[C@@H](CC(=O)N(C([2H])([2H])C([2H])([2H])[2H])C([2H])([2H])C([2H])([2H])[2H])C(=O)N3)c(Br)c(OC([2H])([2H])[2H])c1OC([2H])([2H])[2H] [Compound 5, (S)-2-bromo-N-[3-[2-[bis(pentadeuteroethyl)amino]-2-oxoethyl]-7-(3,5-dimethylphenoxy)-2,5-dioxo-2,3,4,5-tetrahydro-1H-benzo[e][1,4]diazepin-8-yl]-3,4,5-tris(trideuteromethoxy)benzamide] | – | – | inhibit the growth | strong killing effect | significantly reduced | – | – | 34 | 69.6 | 31.7 | 72.03 | 21.2 | 84.20 | 14.2 | 90.02
